Measured values as given in ChEMBL document CHEMBL4308841, “Synthesis, in vitro antiproliferative activity, and kinase inhibitory effects of pyrazole-containing diarylureas and diarylamides” (Eur J Med Chem, 2018).

Tests used:
[1] = tested on: A549; test: Growth inhibition of human A549/ATCC cells assessed as cell growth at 0.1 uM incubated for 48 hrs by sulforhodamine B assay relative to control; assay type: functional; settings: A549, 48 h, read-out: Activity
[2] = tested on: COLO 205; test: Growth inhibition of human COLO205 cells assessed as cell growth at 0.1 uM incubated for 48 hrs by sulforhodamine B assay relative to control; assay type: functional; settings: COLO 205, 48 h, read-out: Activity
[3] = tested on: CCRF-CEM; test: Growth inhibition of human CCRF-CEM cells assessed as cell growth at 1 uM incubated for 48 hrs by sulforhodamine B assay relative to control; assay type: functional; settings: read-out: Activity
[4] = tested on: SW-620; test: Growth inhibition of human SW620 cells incubated for 48 hrs by sulforhodamine B assay; assay type: functional, cell-based; settings: SW-620, 48 h
[5] = tested on: RPMI-8226; test: Growth inhibition of human RPMI8226 cells assessed as cell growth at 1 uM incubated for 48 hrs by sulforhodamine B assay relative to control; assay type: functional; settings: RPMI-8226, 48 h, read-out: Activity
[6] = tested on: MDA-MB-435; test: Growth inhibition of human MDA-MB-435 cells assessed as cell growth at 0.1 uM incubated for 48 hrs by sulforhodamine B assay relative to control; assay type: functional; settings: MDA-MB-435, 48 h, read-out: Activity
[7] = tested on: Malme-3M; test: Growth inhibition of human MALME-3M cells incubated for 48 hrs by sulforhodamine B assay; assay type: functional, cell-based
[8] = tested on: MDA-MB-231; test: Growth inhibition of human MDA-MB-231 cells assessed as cell growth at 0.01 uM incubated for 48 hrs by sulforhodamine B assay relative to control; assay type: functional; settings: MDA-MB-231, 48 h, read-out: Activity
[9] = tested on: SF-268; test: Growth inhibition of human SF268 cells assessed as cell growth at 1 uM incubated for 48 hrs by sulforhodamine B assay relative to control; assay type: functional; settings: SF-268, 48 h, read-out: Activity
[10] = tested on: RXF 393; test: Growth inhibition of human RXF393 cells assessed as cell growth at 100 uM incubated for 48 hrs by sulforhodamine B assay relative to control; assay type: functional; settings: RXF 393, 48 h, read-out: Activity
[11] = tested on: SK-MEL-28; test: Growth inhibition of human SK-MEL-28 cells assessed as cell growth at 0.1 uM incubated for 48 hrs by sulforhodamine B assay relative to control; assay type: functional; settings: SK-MEL-28, 48 h, read-out: Activity
[12] = tested on: NCI/ADR-RES; test: Growth inhibition of human NCI/ADR-RES cells assessed as cell growth at 1 uM incubated for 48 hrs by sulforhodamine B assay relative to control; assay type: functional; settings: read-out: Activity
[13] = tested on: PC-3; test: Growth inhibition of human PC3 cells assessed as cell growth at 0.1 uM incubated for 48 hrs by sulforhodamine B assay relative to control; assay type: functional; settings: PC-3, 48 h, read-out: Activity
[14] = tested on: MDA-MB-468; test: Growth inhibition of human MDA-MB-468 cells assessed as cell growth at 1 uM incubated for 48 hrs by sulforhodamine B assay relative to control; assay type: functional; settings: MDA-MB-468, 48 h, read-out: Activity
[15] = tested on: T47D; test: Growth inhibition of human T47D cells assessed as cell growth at 100 uM incubated for 48 hrs by sulforhodamine B assay relative to control; assay type: functional; settings: read-out: Activity
[16] = tested on: U-251; test: Growth inhibition of human U251 cells assessed as cell growth at 100 uM incubated for 48 hrs by sulforhodamine B assay relative to control; assay type: functional; settings: U-251, 48 h, read-out: Activity
[17] = tested on: HOP-62; test: Growth inhibition of human HOP62 cells assessed as cell growth at 100 uM incubated for 48 hrs by sulforhodamine B assay relative to control; assay type: functional; settings: HOP-62, 48 h, read-out: Activity
[18] = tested on: NCI-H460; test: Growth inhibition of human NCI-H460 cells assessed as cell growth at 100 uM incubated for 48 hrs by sulforhodamine B assay relative to control; assay type: functional; settings: NCI-H460, 48 h, read-out: Activity
[19] = tested on: UACC-257; test: Growth inhibition of human UACC257 cells assessed as cell growth at 0.1 uM incubated for 48 hrs by sulforhodamine B assay relative to control; assay type: functional; settings: UACC-257, 48 h, read-out: Activity
[20] = tested on: M14; test: Growth inhibition of human M14 cells assessed as cell growth at 100 uM incubated for 48 hrs by sulforhodamine B assay relative to control; assay type: functional; settings: M14, 48 h, read-out: Activity
[21] = tested on: NCI-H226; test: Growth inhibition of human NCI-H226 cells incubated for 48 hrs by sulforhodamine B assay; assay type: functional, cell-based; settings: NCI-H226, 48 h
[22] = tested on: Malme-3M; test: Growth inhibition of human MALME-3M cells assessed as cell growth at 0.1 uM incubated for 48 hrs by sulforhodamine B assay relative to control; assay type: functional; settings: read-out: Activity
[23] = tested on: CCRF-CEM; test: Growth inhibition of human CCRF-CEM cells incubated for 48 hrs by sulforhodamine B assay; assay type: functional, cell-based
[24] = tested on: SK-MEL-5; test: Growth inhibition of human SK-MEL-5 cells assessed as cell growth at 0.1 uM incubated for 48 hrs by sulforhodamine B assay relative to control; assay type: functional; settings: SK-MEL-5, 48 h, read-out: Activity
[25] = tested on: NCI-H322M; test: Growth inhibition of human NCI-H322M cells assessed as cell growth at 100 uM incubated for 48 hrs by sulforhodamine B assay relative to control; assay type: functional; settings: read-out: Activity
[26] = tested on: NCI-H522; test: Growth inhibition of human NCI-H522 cells assessed as cell growth at 0.1 uM incubated for 48 hrs by sulforhodamine B assay relative to control; assay type: functional; settings: NCI-H522, 48 h, read-out: Activity
[27] = tested on: MDA-MB-468; test: Growth inhibition of human MDA-MB-468 cells incubated for 48 hrs by sulforhodamine B assay; assay type: functional, cell-based; settings: MDA-MB-468, 48 h
[28] = tested on: SF-539; test: Growth inhibition of human SF539 cells assessed as cell growth at 0.01 uM incubated for 48 hrs by sulforhodamine B assay relative to control; assay type: functional; settings: SF-539, 48 h, read-out: Activity
[29] = tested on: HCT-15; test: Growth inhibition of human HCT15 cells assessed as cell growth at 1 uM incubated for 48 hrs by sulforhodamine B assay relative to control; assay type: functional; settings: HCT-15, 48 h, read-out: Activity
[30] = tested on: CCRF-CEM; test: Growth inhibition of human CCRF-CEM cells assessed as cell growth at 0.1 uM incubated for 48 hrs by sulforhodamine B assay relative to control; assay type: functional; settings: read-out: Activity
[31] = read-out: LC50 (the source's name)
[32] = read-out: pLC50 (the source's name) (converted)

COc1cc(Cl)cc(-c2nn(-c3cccc(NC(=O)c4cccc(C(F)(F)F)c4)c3)cc2-c2ccncc2)c1
growth at 0.1 µM [1]: 93% | growth at 0.1 µM [2]: 101% | growth at 1 µM [3]: 53% | GI50 ([4]; read-out: GI50): > 100 µM | LC50 ([4]; read-out: LC50): > 100 µM | TGI ([4]; read-out: TGI): > 100 µM | GI50 ([4]; read-out: pGI50 (converted)): > 100 µM | LC50 ([4]; read-out: pLC50 (converted)): > 100 µM | TGI ([4]; read-out: pTGI (converted)): > 100 µM | growth at 1 µM [5]: 79% | growth at 0.1 µM [6]: 95% | GI50 ([7]; read-out: GI50): > 100 µM | CC50 [7, 31]: > 100 µM | TGI ([7]; read-out: TGI): > 100 µM | GI50 ([7]; read-out: pGI50 (converted)): > 100 µM | CC50 [7, 32]: > 100 µM | TGI ([7]; read-out: pTGI (converted)): > 100 µM | growth at 0.01 µM [8]: 102% | growth at 1 µM [9]: 100% | growth at 100 µM [10]: 19% | growth at 0.1 µM [11]: 97% | growth at 1 µM [12]: 89% | growth at 0.1 µM [13]: 52% | growth at 1 µM [14]: 50% | growth at 100 µM [15]: 15% | growth at 100 µM [16]: 41% | growth at 100 µM [17]: 83% | growth at 100 µM [18]: 30% | growth at 0.1 µM [19]: 91% | growth at 100 µM [20]: 27% | GI50 ([21]; read-out: GI50): > 100 µM | LC50 ([21]; read-out: LC50): > 100 µM | TGI ([21]; read-out: TGI): > 100 µM | GI50 ([21]; read-out: pGI50 (converted)): > 100 µM | LC50 ([21]; read-out: pLC50 (converted)): > 100 µM | TGI ([21]; read-out: pTGI (converted)): > 100 µM | growth at 0.1 µM [22]: 90% | GI50 ([23]; read-out: GI50): 4.38 µM | CC50 [23, 31]: > 100 µM | TGI ([23]; read-out: TGI): > 100 µM | GI50 ([23]; read-out: pGI50 (converted)): 4.37 µM | CC50 [23, 32]: > 100 µM | TGI ([23]; read-out: pTGI (converted)): > 100 µM | growth at 0.1 µM [24]: 95% | growth at 100 µM [25]: 75% | growth at 0.1 µM [26]: 83% | IC50 [27]: 4.26 µM | GI50 ([27]; read-out: GI50): 4.26 µM | CC50 [27, 31]: > 100 µM | TGI ([27]; read-out: TGI): > 100 µM | GI50 ([27]; read-out: pGI50 (converted)): 4.27 µM | CC50 [27, 32]: > 100 µM | TGI ([27]; read-out: pTGI (converted)): > 100 µM | growth at 0.01 µM [28]: 93% | growth at 1 µM [29]: 71% | growth at 0.1 µM [30]: 92%
